Experimental findings from ChEMBL document CHEMBL1136176, “QSAR study on the affinity of some arylpiperazines towards the 5-HT1A/alpha1-adrenergic receptor using the E-state index” (Bioorg Med Chem Lett, 2003) are described below.

Common to all, as to type: functional, tissue-based
The target of test [1] is T1, 5-hydroxytryptamine receptor 1A (Rattus norvegicus) (UniProt P19327).
T1 sequence (whole entry): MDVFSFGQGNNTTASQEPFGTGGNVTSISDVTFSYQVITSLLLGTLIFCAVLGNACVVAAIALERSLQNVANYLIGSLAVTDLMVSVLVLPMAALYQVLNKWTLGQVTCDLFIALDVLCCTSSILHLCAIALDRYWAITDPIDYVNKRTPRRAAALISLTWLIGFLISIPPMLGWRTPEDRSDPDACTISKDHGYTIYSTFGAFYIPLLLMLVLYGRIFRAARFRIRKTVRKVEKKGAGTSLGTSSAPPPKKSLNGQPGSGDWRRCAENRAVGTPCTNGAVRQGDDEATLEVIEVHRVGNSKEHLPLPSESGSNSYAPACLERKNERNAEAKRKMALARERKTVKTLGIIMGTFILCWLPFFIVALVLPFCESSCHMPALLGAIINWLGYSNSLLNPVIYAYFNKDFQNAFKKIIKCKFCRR
As to the kind of experiment: Antagonistic activity against 5-hydroxytryptamine 1A receptor in rat cerebral cortex using [3H]8-OH-DPAT as radioligand.

Test [2] addresses Adrenergic receptor alpha-1 (Rattus norvegicus) (UniProt P15823+P23944+P43140). The test can be described thus: Antagonistic activity against alpha-1 adrenergic receptor in rat cerebral cortex using [3H]prazosin as radioligand.
The target of test [3] is T1, 5-hydroxytryptamine receptor 1A (Rattus norvegicus). The test can be described thus: Antagonistic activity against 5-hydroxytryptamine 1A receptor in rat cerebral cortex using [3H]-8-OH-DPAT as radioligand.

In the case of `Nc1cccc(N2CCN(CCCN3C(=O)C4CCCN4C3=O)CC2)c1` (stereo unspecified), the K1 in test [1] was 1180 nM. In test [2], this compound registered a K2 of 393 nM and a pK2 of 6.41. In addition, the pK1 in test [3] was determined as 5.93.

In turn, `N#Cc1ccccc1N1CCN(CCCN2C(=O)C3CCCCN3C2=O)CC1` (stereo unspecified) had a K1 in test [1] of 65 nM. In test [2], this compound yielded a K2 of 8.2 nM and a pK2 of 8.09. The same compound gave a pK1 in test [3] of 7.19.

Compound `CCCOC(=O)c1ccccc1N1CCN(CCCCN2C(=O)C3CCCN3C2=O)CC1` (stereo unspecified) returned a K1 in test [1] of 4.8 nM. For the same compound, in test [2], the K2 worked out at 41 nM and the pK2 was determined as 7.39. Also, in test [3], the pK1 was 8.32.

`CCCNC(=O)c1ccccc1N1CCN(CCCN2CC(=O)N3CCCCC3C2=O)CC1` (stereo unspecified): the K1 in test [1] came out at 4610 nM. Further, in test [2], the K2 was 811 nM and the pK2 is 6.09. Moreover, the pK1 in test [3] is 5.34.

As for `CCCOC(=O)c1ccccc1N1CCN(CCCN2C(=O)C3CCCCN3C2=O)CC1` (stereo unspecified), in test [1], the K1 was 46 nM. Besides, in test [2], the K2 stood at 13 nM and the pK2 was determined as 7.89. In addition, the pK1 in test [3] turned out to be 7.34.

In the case of `CCCNC(=O)c1ccccc1N1CCN(CCCN2C(=O)C3CCCN3C2=O)CC1` (stereo unspecified), in test [1], the K1 is 808 nM. In addition, in test [2], the K2 was found to be 608 nM and the pK2 worked out at 6.22. The compound further showed a pK1 in test [3] of 6.09.

Compound `Cc1ccccc1N1CCN(CCCN2CC(=O)N3CCCCC3C2=O)CC1` (stereo unspecified) yielded a K1 in test [1] of 143 nM. In test [2], the K2 was 29 nM and the pK2 came to 7.53. Also, the pK1 in test [3] came to 6.84.

For `Cc1ccccc1N1CCN(CCCN2C(=O)C3CCCCN3C2=O)CC1` (stereo unspecified), the K1 in test [1] was 220 nM. Besides, in test [2], the K2 was determined as 5.7 nM and the pK2 was found to be 8.25. Also, the pK1 in test [3] was 6.66.

On to `CC(C)C(=O)Nc1cccc(N2CCN(CCCN3C(=O)C4CCCCN4C3=O)CC2)c1` (stereo unspecified), for which the K1 in test [1] was found to be 776 nM. Moreover, in test [2], the K2 was found to be 4430 nM and the pK2 was determined as 5.35. In test [3], this compound registered a pK1 of 6.11.

In the case of `O=C1C2CCCCN2C(=O)CN1CCCN1CCN(c2ccccc2C(F)(F)F)CC1` (stereo unspecified), in test [1], the K1 is 179 nM. In test [2], this compound had a K2 of 339 nM and a pK2 of 6.47. The pK1 in test [3] was 6.75.

As to `Cc1ccccc1N1CCN(CCCCN2CC(=O)N3CCCCC3C2=O)CC1` (stereo unspecified), the K1 in test [1] was found to be 32 nM. Further, in test [2], the K2 turned out to be 27 nM and the pK2 turned out to be 7.56. Further, in test [3], the pK1 amounted to 7.5.

Turning to `CCCNC(=O)c1ccccc1N1CCN(CCCCN2C(=O)C3CCCCN3C2=O)CC1` (stereo unspecified), in test [1], the K1 was found to be 378 nM. In test [2], this compound gave a K2 of 521 nM and a pK2 of 6.28. Further, in test [3], the pK1 came to 6.42.

In turn, `CC(C)C(=O)Nc1cccc(N2CCN(CCCCN3C(=O)C4CCCN4C3=O)CC2)c1` (stereo unspecified) yielded a K1 in test [1] of 193 nM. In test [2], this compound returned a K2 of 5420 nM and a pK2 of 5.27. Besides, the pK1 in test [3] was 6.72.

Consider `CCCOC(=O)c1ccccc1N1CCN(CCCCN2CC(=O)N3CCCCC3C2=O)CC1` (stereo unspecified), for which, in test [1], the K1 came to 28 nM. Also, in test [2], the K2 worked out at 392 nM and the pK2 came to 6.41. This compound also returned a pK1 in test [3] of 7.55.

`CCCNC(=O)c1ccccc1N1CCN(CCCCN2CC(=O)N3CCCC3C2=O)CC1` (stereo unspecified) came in with a K1 in test [1] of 1230 nM. In test [2], this compound gave a K2 of 1350 nM and a pK2 of 5.87. The compound further gave a pK1 in test [3] of 5.91.

As for `Cc1ccccc1N1CCN(CCCCN2C(=O)C3CCCN3C2=O)CC1` (stereo unspecified), the K1 in test [1] worked out at 16 nM. In addition, in test [2], the K2 was 7 nM and the pK2 was 8.15. In test [3], this compound showed a pK1 of 7.78.

`CCCCOc1ccccc1N1CCN(CCCN2C(=O)C3CCCN3C2=O)CC1` (stereo unspecified) registered a K1 in test [1] of 15 nM. For the same compound, in test [2], the K2 was 6.4 nM and the pK2 was 8.19. In addition, in test [3], the pK1 turned out to be 7.82.

In test [2], `CCCOC(=O)c1ccccc1N1CCN(CCCN2CC(=O)N3CCCC3C2=O)CC1` (stereo unspecified) returned a K2 of 12 nM and a pK2 of 7.93.

For `CCCCOc1ccccc1N1CCN(CCCN2CC(=O)N3CCCCC3C2=O)CC1` (stereo unspecified), the K1 in test [1] is 92 nM. For the same compound, in test [2], the K2 worked out at 13 nM and the pK2 came out at 7.89. This compound also came in with a pK1 in test [3] of 7.04.

The compound `CC(C)C(=O)Nc1cccc(N2CCN(CCCN3CC(=O)N4CCCC4C3=O)CC2)c1` (stereo unspecified) had a K1 in test [1] of 266 nM. In test [2], this compound registered a K2 of 1440 nM and a pK2 of 5.84. In test [3], this compound returned a pK1 of 6.57.

In test [1], `O=C1C2CCCCN2C(=O)N1CCCCN1CCN(c2cccc(Br)c2)CC1` (stereo unspecified) displayed a K1 of 5.4 nM. In test [2], the K2 stood at 5.9 nM and the pK2 was 8.23. Also, the pK1 in test [3] was 8.27.

In test [1], `N#Cc1ccccc1N1CCN(CCCN2CC(=O)N3CCCC3C2=O)CC1` (stereo unspecified) gave a K1 of 27 nM. In test [2], this compound returned a K2 of 17 nM and a pK2 of 7.76. Also, the pK1 in test [3] was 7.56.

In test [1], `Nc1cccc(N2CCN(CCCCN3C(=O)C4CCCCN4C3=O)CC2)c1` (stereo unspecified) showed a K1 of 68 nM. In test [2], this compound yielded a K2 of 231 nM and a pK2 of 6.64. The pK1 in test [3] came out at 7.17.

For `CC(C)C(=O)Nc1cccc(N2CCN(CCCCN3CC(=O)N4CCCCC4C3=O)CC2)c1` (stereo unspecified), the K1 in test [1] was 198 nM. In addition, in test [2], the K2 came out at 16100 nM and the pK2 stood at 4.79. The compound further registered a pK1 in test [3] of 6.7.

Turning to `Cc1ccccc1N1CCN(CCCN2CC(=O)N3CCCC3C2=O)CC1` (stereo unspecified), the K1 in test [1] is 48 nM. In test [2], this compound had a K2 of 17 nM and a pK2 of 7.76. The same compound had a pK1 in test [3] of 7.31.

Turning to `O=C1C2CCCN2C(=O)N1CCCN1CCN(c2cccc(Br)c2)CC1` (stereo unspecified), the K1 in test [1] amounted to 34 nM. In addition, in test [2], the K2 was found to be 25 nM and the pK2 came out at 7.61. In addition, in test [3], the pK1 came to 7.47.

`Cc1ccccc1N1CCN(CCCCN2CC(=O)N3CCCC3C2=O)CC1` (stereo unspecified): in test [1], the K1 stood at 12 nM. In test [2], this compound returned a K2 of 25 nM and a pK2 of 7.59. Besides, the pK1 in test [3] was 7.92.

Consider `O=C1C2CCCN2C(=O)CN1CCCCN1CCN(c2ccccc2C(F)(F)F)CC1` (stereo unspecified), for which, in test [1], the K1 was determined as 5.5 nM. In test [2], the K2 amounted to 72 nM and the pK2 came to 7.14. The same compound had a pK1 in test [3] of 8.26.

Turning to `CCCCOc1ccccc1N1CCN(CCCCN2CC(=O)N3CCCC3C2=O)CC1` (stereo unspecified), the K1 in test [1] stood at 8.7 nM. In test [2], the K2 worked out at 10.5 nM and the pK2 is 7.98. The compound further registered a pK1 in test [3] of 8.06.

For `N#Cc1ccccc1N1CCN(CCCCN2CC(=O)N3CCCCC3C2=O)CC1` (stereo unspecified), in test [1], the K1 worked out at 15 nM. In test [2], this compound came in with a K2 of 30 nM and a pK2 of 7.52. The same compound registered a pK1 in test [3] of 7.82.

In test [1], `N#Cc1ccccc1N1CCN(CCCCN2C(=O)C3CCCN3C2=O)CC1` (stereo unspecified) showed a K1 of 4 nM. Besides, in test [2], the K2 stood at 4.9 nM and the pK2 stood at 8.31. Further, the pK1 in test [3] turned out to be 8.4.

Consider `CCCCOc1ccccc1N1CCN(CCCCN2C(=O)C3CCCCN3C2=O)CC1` (stereo unspecified), for which the K1 in test [1] came out at 2.2 nM. In test [2], this compound showed a K2 of 5 nM and a pK2 of 8.3. In addition, the pK1 in test [3] is 8.66.
